Experimental findings from ChEMBL document CHEMBL4184305, “Inhibition of histone lysine methyltransferases G9a and GLP by ejection of structural Zn(II)” (Bioorg Med Chem Lett, 2018) are described below.

Molecules are shown by their SMILES. The source made the active and inactive calls. No cut-off for these calls is given here.

Experiment [1] has as its target T1, Histone-lysine N-methyltransferase EHMT2 (Homo sapiens) (UniProt Q96KQ7).
T1 sequence (whole entry): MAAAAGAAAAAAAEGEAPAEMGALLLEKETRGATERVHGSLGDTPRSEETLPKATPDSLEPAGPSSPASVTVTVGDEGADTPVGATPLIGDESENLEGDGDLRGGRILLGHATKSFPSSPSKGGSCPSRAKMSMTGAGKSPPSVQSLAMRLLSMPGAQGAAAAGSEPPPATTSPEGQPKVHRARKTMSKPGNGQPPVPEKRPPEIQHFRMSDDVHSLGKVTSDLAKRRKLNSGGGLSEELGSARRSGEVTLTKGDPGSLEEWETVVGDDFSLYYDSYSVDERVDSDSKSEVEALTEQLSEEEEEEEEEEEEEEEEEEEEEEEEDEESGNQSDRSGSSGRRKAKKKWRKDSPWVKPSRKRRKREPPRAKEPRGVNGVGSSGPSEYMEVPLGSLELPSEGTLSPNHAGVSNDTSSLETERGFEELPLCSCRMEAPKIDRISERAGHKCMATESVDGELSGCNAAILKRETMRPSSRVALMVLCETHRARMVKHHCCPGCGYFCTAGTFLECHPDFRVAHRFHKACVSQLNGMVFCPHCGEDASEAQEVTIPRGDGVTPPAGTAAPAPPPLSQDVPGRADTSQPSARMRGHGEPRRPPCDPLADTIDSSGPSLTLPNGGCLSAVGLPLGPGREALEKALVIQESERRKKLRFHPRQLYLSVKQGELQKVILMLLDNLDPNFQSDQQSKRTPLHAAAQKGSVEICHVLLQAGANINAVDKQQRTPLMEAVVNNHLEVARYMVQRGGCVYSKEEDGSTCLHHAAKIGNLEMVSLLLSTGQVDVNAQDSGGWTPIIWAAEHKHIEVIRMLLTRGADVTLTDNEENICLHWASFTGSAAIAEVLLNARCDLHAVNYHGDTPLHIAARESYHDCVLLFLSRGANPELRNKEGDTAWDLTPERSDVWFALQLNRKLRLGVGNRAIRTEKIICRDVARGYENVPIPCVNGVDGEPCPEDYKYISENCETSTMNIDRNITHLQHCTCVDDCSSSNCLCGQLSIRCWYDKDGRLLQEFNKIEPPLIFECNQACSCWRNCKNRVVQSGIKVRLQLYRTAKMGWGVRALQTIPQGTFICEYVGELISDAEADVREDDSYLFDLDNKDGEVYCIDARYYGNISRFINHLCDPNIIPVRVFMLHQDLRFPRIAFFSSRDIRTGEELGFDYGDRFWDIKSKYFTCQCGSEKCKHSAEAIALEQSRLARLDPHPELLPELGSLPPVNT
As to the kind of experiment: Inhibition of wild type recombinant human histone lysine methyltransferase G9a (913 to 1193 residues) expressed in Escherichia coli Rosetta BL21 DE3 PlysS assessed as zinc ions ejection from Cys4-Zn finger at 2.5 to 100 uM after 500 to 3500 secs by FluoZin-3 based fluorescence assay.

In experiment [2] the target is T2, Histone-lysine N-methyltransferase EHMT1 (Homo sapiens) (UniProt Q9H9B1).
T2 sequence (whole entry): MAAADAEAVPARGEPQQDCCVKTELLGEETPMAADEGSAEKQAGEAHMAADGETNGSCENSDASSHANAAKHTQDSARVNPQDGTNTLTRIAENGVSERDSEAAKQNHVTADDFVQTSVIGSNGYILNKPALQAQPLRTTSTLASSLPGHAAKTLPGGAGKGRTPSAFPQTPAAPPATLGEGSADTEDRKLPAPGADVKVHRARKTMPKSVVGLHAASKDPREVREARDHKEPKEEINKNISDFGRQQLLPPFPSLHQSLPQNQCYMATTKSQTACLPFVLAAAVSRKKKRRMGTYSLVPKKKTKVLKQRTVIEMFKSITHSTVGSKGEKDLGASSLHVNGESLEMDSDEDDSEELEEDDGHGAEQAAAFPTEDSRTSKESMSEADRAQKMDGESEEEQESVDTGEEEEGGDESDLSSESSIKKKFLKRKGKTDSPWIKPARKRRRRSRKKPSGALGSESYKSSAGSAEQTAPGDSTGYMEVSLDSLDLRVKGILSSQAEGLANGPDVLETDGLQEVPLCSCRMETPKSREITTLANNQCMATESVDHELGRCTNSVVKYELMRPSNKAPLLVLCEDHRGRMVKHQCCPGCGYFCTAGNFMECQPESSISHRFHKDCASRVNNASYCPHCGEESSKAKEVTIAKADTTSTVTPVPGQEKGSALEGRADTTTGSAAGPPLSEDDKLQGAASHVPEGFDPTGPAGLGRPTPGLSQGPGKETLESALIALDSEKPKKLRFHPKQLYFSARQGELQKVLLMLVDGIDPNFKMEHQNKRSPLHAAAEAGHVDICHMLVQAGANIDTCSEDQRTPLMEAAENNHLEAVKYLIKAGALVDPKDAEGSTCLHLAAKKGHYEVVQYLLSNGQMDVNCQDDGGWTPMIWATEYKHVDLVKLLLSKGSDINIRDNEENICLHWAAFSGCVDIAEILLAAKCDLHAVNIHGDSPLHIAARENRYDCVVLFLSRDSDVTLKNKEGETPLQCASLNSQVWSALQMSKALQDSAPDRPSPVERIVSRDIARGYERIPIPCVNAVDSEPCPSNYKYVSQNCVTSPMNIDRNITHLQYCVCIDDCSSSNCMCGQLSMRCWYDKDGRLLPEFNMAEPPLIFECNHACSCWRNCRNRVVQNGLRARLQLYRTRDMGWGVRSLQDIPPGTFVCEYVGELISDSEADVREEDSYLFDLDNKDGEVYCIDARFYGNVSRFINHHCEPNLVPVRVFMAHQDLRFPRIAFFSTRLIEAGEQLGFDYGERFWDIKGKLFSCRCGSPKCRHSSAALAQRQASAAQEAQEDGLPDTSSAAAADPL
As to the kind of experiment: Inhibition of wild type recombinant human histone lysine methyltransferase GLP (951 to 1235 residues) expressed in Escherichia coli Rosetta BL21 DE3 PlysS assessed as zinc ions ejection from Cys4-Zn finger at >50 uM after 1 hr by circular dichroism analysis. (Circular dichroism is widely used to follow secondary structure.)

The target in experiment [3] is T1, Histone-lysine N-methyltransferase EHMT2 (Homo sapiens). As to the kind of experiment: Inhibition of wild type recombinant human histone lysine methyltransferase G9a (913 to 1193 residues) expressed in Escherichia coli Rosetta BL21 DE3 PlysS assessed as zinc ions ejection from 3 types of Cys9-type Zn fingers at >25 uM after 1 hr by circular dichroism analysis.

For experiment [4] the target is unchanged. As to the kind of experiment: Inhibition of wild type recombinant human histone lysine methyltransferase G9a (913 to 1193 residues) expressed in Escherichia coli Rosetta BL21 DE3 PlysS assessed as zinc ions ejection from Cys4-Zn finger at >25 uM after 1 hr by circular dichroism analysis.
Experiment [5] has the same target. As to the kind of experiment: Inhibition of wild type recombinant human histone lysine methyltransferase G9a (913 to 1193 residues) expressed in Escherichia coli Rosetta BL21 DE3 PlysS assessed as zinc ions ejection from Cys4-Zn finger at 2.5 to 100 uM measured up to 1 min by FluoZin-3 based fluorescence assay.

As for `CCN(CC)C(=S)SSC(=S)N(CC)CC`, the inhibition result in experiment [1] and in experiment [2] was “Active” each time.
For the molecule `O=c1c2ccccc2[se]n1-c1ccccc1` [EBSELEN], the inhibition result in experiment [3], in experiment [4] and in experiment [5] was “Active” each time.
